Source: BindingDB's records for PubMed 34043359 (China Pharmaceutical University, 2021)

Target: Signal transducer and activator of transcription 3 (Homo sapiens, UniProt P40763)
Test: Binding affinity to recombinant GST tagged STAT3 (unknown origin) assessed as dissociation constant

Signal transducer and activator of transcription 3, sequence (P40763 whole entry): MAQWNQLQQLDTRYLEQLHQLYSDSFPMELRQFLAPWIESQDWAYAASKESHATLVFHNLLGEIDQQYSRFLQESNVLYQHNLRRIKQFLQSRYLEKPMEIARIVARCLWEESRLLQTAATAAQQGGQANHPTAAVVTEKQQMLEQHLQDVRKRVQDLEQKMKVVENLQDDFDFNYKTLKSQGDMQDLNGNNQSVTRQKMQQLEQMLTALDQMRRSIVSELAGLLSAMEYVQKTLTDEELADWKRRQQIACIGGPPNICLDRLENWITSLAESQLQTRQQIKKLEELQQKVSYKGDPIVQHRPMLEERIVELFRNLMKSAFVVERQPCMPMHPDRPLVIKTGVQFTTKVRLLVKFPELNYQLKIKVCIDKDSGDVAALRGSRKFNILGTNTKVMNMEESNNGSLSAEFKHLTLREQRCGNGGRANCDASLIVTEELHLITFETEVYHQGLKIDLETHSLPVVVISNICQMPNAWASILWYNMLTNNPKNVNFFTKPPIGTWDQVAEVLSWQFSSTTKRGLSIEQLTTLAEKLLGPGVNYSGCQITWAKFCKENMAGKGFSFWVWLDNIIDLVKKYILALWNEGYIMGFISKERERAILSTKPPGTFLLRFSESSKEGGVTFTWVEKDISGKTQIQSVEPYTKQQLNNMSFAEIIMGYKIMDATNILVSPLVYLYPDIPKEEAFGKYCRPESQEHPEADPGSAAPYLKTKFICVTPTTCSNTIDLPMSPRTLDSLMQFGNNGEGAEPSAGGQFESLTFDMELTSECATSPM

COc1cc(/C=C/c2ccc(OCCCCCCC(=O)NO)cc2)cc(OC)c1
koff: 0.0152 s⁻¹
